In patent publication US20240269170A1, “Treatment of Inflammatory Conditions or Diseases” (Queen Mary University of London, priority 2021, published 2024):

Legend:
arthritic femur heads = assay: Organ culture of arthritic femur heads with monocyte-derived macrophages, Safranin-O staining; format: cell-based, mouse; conditions: monocytes incubated with 10 μM RG108 for 45 min before 1 nM MCTR3
Procedure: FIG. 6: Arg-1 mediates the anti-inflammatory and cartilage protective activities of MCTR3-trained monocytes. (A,B) Femur heads and bone marrow-derived monocytes were collected 5 days following the induction of arthritis in C57BL/6 mice. Femur heads were incubated in serum free DMEM high glucose containing 1% insulin-transferrin-selenium for 48 hours and then in DMEM containing 10% FBS and 10 ng/ml IL-1B for 4 days. Monocytes were incubated with vehicle (PBS+0.1% EtOH) or 1 nM MCTR3 for 24 hours, then differentiated to monocyte-derived macrophages. Two days after the initiation of differentiation, cells were transfected with control siRNA or siRNA against Arg-1. […] Tissues were then collected and glycosaminoglycan content was evaluated using Safranin-O staining. (A) Representative images and (B) quantitation of Safranin-O staining. […] Statistical differences were evaluated using Wilcoxon signed rank test when assessing for differences vs Vehicle group and using one-way ANOVA and Kruskal Wallis post hoc test when evaluating differences vs MCTR3 treated group.
FIG. 12: DNMT enzyme inhibition reverses the ability of MCTR3 to upregulate Arg-1 in MDM and the cartilage protective activities of MCTR3-trained monocytes. […] The proteoglycan concentrations in the femur heads were assessed using Safranin O staining. […] Statistical differences were evaluated using one-sample Wilcoxon signed rank test. […]

[1] = tested on: K/B×N serum induced arthritis in C57BL/6 mice; assay: Sustained K/B×N serum induced arthritis, transfer of monocytes from arthritic mice incubated with MCTR3; format: in vivo, mouse; conditions: monocytes incubated with 10 μM RG108 for 15 min before 1 nM MCTR3
Procedure: (C-D) K/B×N serum (100 μL, i.p.) was administered to C57BL/6 mice on day 0, 2 and 9 to induce and prolong inflammatory arthritis and, on day 12, mice were treated i.v. with 2×10^6 monocytes isolated from arthritic mice and incubated with either vehicle (PBS+0.1% EtOH) or 1 nM MCTR3 for 90 min at 37° C. Disease course was monitored daily by assessing C) clinical scores and D) oedema. Results are mean±SEM. and expressed as percent change from day of treatment. n=9 per group from two distinct experiments. (E) On day 22 hind paws were harvested joints were fixed, sectioned, stained using H&E stain and leukocyte infiltration evaluated. Top and centre panels present representative images from each experimental group; bottom panel Quantitation of the scores in each of the group. Results are mean±SEM. n=8 mice per group. Statistical differences were evaluated using Mann-Whitney U test. IFP=intrapatellar fat, M=meniscus, TB=Tibia, PF=Pannus formation, arrows denote leukocyte infiltration. (F-G) Paws were harvested 10 days after treatment and lipid mediator profiles were determined using LC-MS/MS-based lipid mediator profiling and evaluated using PLS-DA. (F) scores plot with highlighted regions denoting the clusters representing cells from each group (G) VIP scores for top 15 mediators. Each dot in the score plot represents a separate mouse.
FIG. 4: Regulation of joint reparative pathways in mice receiving MCTR3-trained monocytes. K/B×N serum (100 μL, i.p.) was administered to C57BL/6 mice on day 0, 2 and 9 to induce and prolong inflammatory arthritis and, on day 12, mice were treated i.v. with 2×10^6 monocytes isolated from arthritic mice and incubated with either vehicle (PBS+0.1% EtOH) or 1 nM MCTR3 for 90 min. (A-C) On day 22 hind paws were harvested, fixed, and stained to evaluate A) proteoglycan content using Safranin-O staining; B) Col 2 and C) Col X expression was evaluated using immunofluorescence. Left panels present representative images from each experimental group, right panels provide a quantitative evaluation of the staining. Results are expressed as percent change vs Monocyte group. n=7-8 mice per group. Statistical differences were evaluated using Wilcoxon signed rank test. (D-I) Hind paws were also collected on day 22 to evaluate the expression of the indicated genes was evaluated using quantitative realtime PCR. Results are from n=5 mice per group. Statistical differences were evaluated using Mann Whitney-U test.
FIG. 5: MCTR3 reprograms the arthritic monocyte-derive macrophage transcriptome. A-B) Arthritis was induced and prolonged in C57BL/6 mice by administering 100 μL K/B×N serum i.p. on day 0, 2 and 9. Mice were treated on day 12 i.v. with 2×10^6 monocytes isolated from arthritic mice and incubated either with vehicle (PBS+0.1% DMSO) or 10 μM RG108, a DNMT inhibitor, for 15 min and then with a vehicle (PBS+0.1% EtOH) or 1 nM MCTR3 for 90 min (37° C.). Disease course was monitored daily by assessing A) clinical scores and B) oedema. Results are mean±SEM and expressed as percent change from day of treatment. n=10 mice per group. Statistical differences were evaluated using Two-way ANOVA. (C-E) K/B×N serum (100 μL, i.p.) was administered to mice on days 0, 2 and 9 to induce and prolong inflammatory arthritis. On day 12, mice were treated i.v. with 2×10^6 monocytes isolated from arthritic mice that were previously incubated with either vehicle (PBS+0.1% EtOH) or 1 nM MCTR3 for 90 min. Cells were isolated from paw joints on day 22, sorted for CD45^+ cells and single cell RNA sequencing was performed. […] Results are from n=4 mice per group. (F-G) Monocytes were isolated from human healthy volunteers, these cells were then incubated with GM-CSF (7 days, 37° C.) then with either Vehicle or MCTR3 (1 nM, 37° C.). Cells were lysed and the phosphoproteome determined using mass spectrometry. […]

SMILES: O=C(O)C(Cc1c[nH]c2ccccc12)N1C(=O)c2ccccc2C1=O (stereo not drawn) [RG108]
- cartilage protective activities of MCTR3-trained monocytes (arthritic femur heads): reverses
- protective actions of MCTR3 (ability of reprogrammed monocytes to regulate joint inflammation) [1]: abolished
- ability of MCTR3 to upregulate Arg-1 in PKH67+ CD64+ cells in vivo ([1]; day 22): reversed
